# Reference: patent US20240158446A1, “CYCLIC COMPOUND HAVING SELECTIVE INHIBITORY ACTION ON KRAS OVER HRAS AND NRAS” (CHUGAI SEIYAKU KABUSHIKI KAISHA, priority 2021, published 2024)
# Legend:
# [1] = molecular target: GDP-bound HRAS wild-type protein (Homo sapiens, UniProt P01112); experiment: Binding to HRAS by surface plasmon resonance (SPR), Single Cycle Kinetics; settings: SPR KD ratio HRAS/KRAS, class symbols
# [2] = molecular target: GDP-bound NRAS wild-type protein (Homo sapiens, UniProt P01111); experiment: Binding to NRAS by surface plasmon resonance (SPR), Single Cycle Kinetics; settings: SPR KD ratio NRAS/KRAS, class symbols
# GDP-bound NRAS wild-type protein, sequence (P01111 whole entry): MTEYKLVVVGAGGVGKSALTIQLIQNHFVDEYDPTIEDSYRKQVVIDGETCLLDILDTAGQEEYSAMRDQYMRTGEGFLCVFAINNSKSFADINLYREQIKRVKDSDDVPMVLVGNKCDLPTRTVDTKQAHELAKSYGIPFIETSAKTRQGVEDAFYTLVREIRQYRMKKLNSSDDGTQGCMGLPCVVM
# [3] = molecular target: GDP-bound KRAS wild-type protein (Homo sapiens, UniProt P01116); experiment: Binding to KRAS by surface plasmon resonance (SPR), Single Cycle Kinetics; settings: SPR Single Cycle Kinetics, GDP-bound KRAS wild-type protein, 1:1 binding model; read-out: KRAS KD
# GDP-bound KRAS wild-type protein, sequence (P01116 whole entry): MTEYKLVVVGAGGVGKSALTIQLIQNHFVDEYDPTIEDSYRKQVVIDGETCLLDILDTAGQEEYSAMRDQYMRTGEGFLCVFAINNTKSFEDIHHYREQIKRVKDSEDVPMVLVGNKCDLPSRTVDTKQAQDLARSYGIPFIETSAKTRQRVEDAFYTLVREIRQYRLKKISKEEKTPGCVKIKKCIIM
# GDP-bound HRAS wild-type protein, sequence (P01112 whole entry): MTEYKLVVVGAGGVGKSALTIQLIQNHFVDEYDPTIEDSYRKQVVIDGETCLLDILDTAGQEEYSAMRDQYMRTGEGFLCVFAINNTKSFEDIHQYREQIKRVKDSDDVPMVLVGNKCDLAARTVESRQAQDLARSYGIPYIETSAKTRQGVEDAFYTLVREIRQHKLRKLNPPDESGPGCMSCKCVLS
Structure (SMILES),HRAS/KRAS (ratio of KD value with respect to GDP-bound HRAS wild-type protein to KD value with respect to KRAS) [1],NRAS/KRAS (ratio of KD value with respect to GDP-bound NRAS wild-type protein to KD value with respect to KRAS) [2],Kd [3] [pM]
CCC[C@H]1C(=O)N[C@@H]([C@@H](C)CC)C(=O)N(C2CC2)CC(=O)N(C)[C@H]2C/C=C\CCN(C2=O)[C@@H](Cc2ccc(C(F)(F)F)cc2)C(=O)N(C)CC(=O)N[C@@H](CCc2ccc(Cl)c(Cl)c2)C(=O)N2C[C@H](OCC)C[C@H]2C(=O)NC2(CC(C)(C)C2)C(=O)N(C)[C@@H](CC2CC2)C(=O)N(C)[C@H](C(=O)N(C)C)CC(=O)N1C [PP2817],A (a compound having 10 or more and less than 20 is denoted as A),A (a compound having 10 or more and less than 20 is denoted as A),2400
CCC(CC)[C@H]1C(=O)N(C)[C@H](C(=O)N(C)C)CC(=O)N(C)[C@@H](COC)C(=O)N[C@@H]([C@@H](C)CC)C(=O)N(C)CC(=O)N(C)[C@H]2C/C=C\CCN(C2=O)[C@@H](Cc2ccc(C)cc2)C(=O)N(C)CC(=O)N[C@@H](CCc2ccc(Cl)c(Cl)c2)C(=O)N2C[C@H](OC3CCCC3)C[C@H]2C(=O)N(C)C2(CC(C)(C)C2)C(=O)N1C [PP2818],A (a compound having 10 or more and less than 20 is denoted as A),A (a compound having 10 or more and less than 20 is denoted as A),880
CCC[C@H]1C(=O)N[C@@H]([C@@H](C)CC)C(=O)N(C2CC2)CC(=O)N(C)[C@H]2C/C=C\CCN(C2=O)[C@@H](Cc2ccc(C(F)(F)F)cc2)C(=O)N(C)CC(=O)N[C@@H](CCc2ccc(Cl)c(Cl)c2)C(=O)N2C[C@H](OCC)C[C@H]2C(=O)NC2(CC(C)(C)C2)C(=O)N(C)[C@@H](CC2CCC2)C(=O)N(C)[C@H](C(=O)N(C)C)CC(=O)N1C [PP2819],A (a compound having 10 or more and less than 20 is denoted as A),A (a compound having 10 or more and less than 20 is denoted as A),2200
CCO[C@@H]1C[C@H]2C(=O)NC3(CC(C)(C)C3)C(=O)N(C)[C@@H](CC3CCC3)C(=O)N(C)[C@H](C(=O)N(C)C)CC(=O)N(C)[C@@H](COC)C(=O)N[C@@H]([C@@H](C)CC)C(=O)N(C3CC3)CC(=O)N(C)[C@H]3C/C=C\CCN(C3=O)[C@@H](Cc3ccc(C(F)(F)F)cc3)C(=O)N(C)CC(=O)N[C@@H](CCc3ccc(Cl)c(Cl)c3)C(=O)N2C1 [PP2821],A (a compound having 10 or more and less than 20 is denoted as A),A (a compound having 10 or more and less than 20 is denoted as A),1800
CCO[C@@H]1C[C@H]2C(=O)NC3(CC(C)(C)C3)C(=O)N(C)[C@@H](C3CCCC3)C(=O)N(C)[C@H](C(=O)N(C)CC)CC(=O)N(C)[C@@H](CC)C(=O)N[C@@H]([C@@H](C)CC)C(=O)N(C)CC(=O)N(C)[C@H]3C/C=C\CCN(C3=O)[C@@H](Cc3ccc(C(F)(F)F)cc3)C(=O)N(C)CC(=O)N[C@@H](CCc3ccc(Cl)c(Cl)c3)C(=O)N2C1 [PP2822],A (a compound having 10 or more and less than 20 is denoted as A),A (a compound having 10 or more and less than 20 is denoted as A),260
CCO[C@@H]1C[C@H]2C(=O)NC3(CC(C)(C)C3)C(=O)N(C)[C@@H](C3CCCC3)C(=O)N(C)[C@H](C(=O)N(C)CC)CC(=O)N(C)[C@@H](CC)C(=O)N[C@@H]([C@@H](C)CC)C(=O)N(C)CC(=O)N(C)[C@H]3C/C=C\CCN(C3=O)[C@@H](Cc3ccc(C(F)(F)F)cc3)C(=O)N(C)CC(=O)N[C@@H](CCc3ccc(C(F)(F)F)c(Cl)c3)C(=O)N2C1 [PP2823],A (a compound having 10 or more and less than 20 is denoted as A),A (a compound having 10 or more and less than 20 is denoted as A),130
CCO[C@@H]1C[C@H]2C(=O)NC3(CCC3)C(=O)N(C)[C@@H](C3CCCC3)C(=O)N(C)[C@H](C(=O)N(C)CC)CC(=O)N(C)[C@@H](CC3CCC3)C(=O)N[C@@H]([C@@H](C)CC)C(=O)N(C)CC(=O)N(C)[C@H]3C/C=C\CCN(C3=O)[C@@H](Cc3ccc(C(F)(F)F)cc3)C(=O)N(C)CC(=O)N[C@@H](CCc3ccc(C(F)(F)F)c(OC)c3)C(=O)N2C1 [PP2825],B (a compound having 3 or more and less than 10 is denoted as B),A (a compound having 10 or more and less than 20 is denoted as A),120
CCO[C@@H]1C[C@H]2C(=O)NC3(CCC3)C(=O)N(C)[C@@H](C3CCCC3)C(=O)N(C)[C@H](C(=O)N(C)CC)CC(=O)N(C)[C@@H](CC3CCC3)C(=O)N[C@@H]([C@@H](C)CC)C(=O)N(C)CC(=O)N(C)[C@H]3C/C=C\CCN(C3=O)[C@@H](Cc3ccc(C(F)(F)F)cc3)C(=O)N(C)CC(=O)N[C@@H](CCc3ccc(C(F)(F)F)c(Cl)c3)C(=O)N2C1 [PP2826],A (a compound having 10 or more and less than 20 is denoted as A),A (a compound having 10 or more and less than 20 is denoted as A),140
CCO[C@@H]1C[C@H]2C(=O)NC3(CC(C)(C)C3)C(=O)N(C)[C@@H](C3CCCC3)C(=O)N(C)[C@H](C(=O)N(C)CC)CC(=O)N(C)[C@@H](CC(C)C)C(=O)N[C@@H]([C@@H](C)CC)C(=O)N(C)CC(=O)N(C)[C@H]3C/C=C\CCN(C3=O)[C@@H](Cc3ccc(C(F)F)cc3)C(=O)N(C)CC(=O)N[C@@H](CCc3ccc(Cl)c(Cl)c3)C(=O)N2C1 [PP2827],B (a compound having 3 or more and less than 10 is denoted as B),A (a compound having 10 or more and less than 20 is denoted as A),380
CCO[C@@H]1C[C@H]2C(=O)NC3(CC(C)(C)C3)C(=O)N(C)[C@@H](C3CCCC3)C(=O)N(C)[C@H](C(=O)N(C)CC)CC(=O)N(C)[C@@H](CC(C)C)C(=O)N[C@@H]([C@@H](C)CC)C(=O)N(C)CC(=O)N(C)[C@H]3C/C=C\CCN(C3=O)[C@@H](Cc3ccc(C(F)F)cc3)C(=O)N(C)CC(=O)N[C@@H](CCc3ccc(C(F)(F)F)c(OC)c3)C(=O)N2C1 [PP2828],A (a compound having 10 or more and less than 20 is denoted as A),A (a compound having 10 or more and less than 20 is denoted as A),110
CCO[C@@H]1C[C@H]2C(=O)NC3(CC(C)(C)C3)C(=O)N(C)[C@@H](C3CCCC3)C(=O)N(C)[C@H](C(=O)N(C)CC)CC(=O)N(C)[C@@H](CC(C)C)C(=O)N[C@@H]([C@@H](C)CC)C(=O)N(C)CC(=O)N(C)[C@H]3C/C=C\CCN(C3=O)[C@@H](Cc3ccc(C(F)F)cc3)C(=O)N(C)CC(=O)N[C@@H](CCc3ccc(C(F)(F)F)c(Cl)c3)C(=O)N2C1 [PP2829],A (a compound having 10 or more and less than 20 is denoted as A),A (a compound having 10 or more and less than 20 is denoted as A),95
CCCOC[C@H]1C(=O)N[C@@H]([C@@H](C)CC)C(=O)N(C)CC(=O)N(C)[C@H]2C/C=C\CCN(C2=O)[C@@H](Cc2ccc(C(F)(F)F)cc2)C(=O)N(C)CC(=O)N[C@@H](CCc2ccc(C(F)(F)F)c(Cl)c2)C(=O)N2C[C@H](OCC)C[C@H]2C(=O)NC2(CCC2)C(=O)N(C)[C@@H](C2CCCC2)C(=O)N(C)[C@H](C(=O)N(C)CCC)CC(=O)N1C [PP2831],A (a compound having 10 or more and less than 20 is denoted as A),A (a compound having 10 or more and less than 20 is denoted as A),110
CCO[C@@H]1C[C@H]2C(=O)NC3(CC(C)(C)C3)C(=O)N(C)[C@@H](C3CCCC3)C(=O)N(C)[C@H](C(=O)N(C)C)CC(=O)N(C)[C@@H](CC(F)(F)F)C(=O)N[C@@H]([C@@H](C)CC)C(=O)N(C)CC(=O)N(C)[C@H]3C/C=C\CCN(C3=O)[C@@H](Cc3ccc(C(F)(F)F)cc3)C(=O)N(C)CC(=O)N[C@@H](CCc3ccc(Cl)c(Cl)c3)C(=O)N2C1 [PP2832],A (a compound having 10 or more and less than 20 is denoted as A),A (a compound having 10 or more and less than 20 is denoted as A),180
CCO[C@@H]1C[C@H]2C(=O)NC3(CC(C)(C)C3)C(=O)N(C)[C@@H](C3CCCC3)C(=O)N(C)[C@H](C(=O)N(C)C)CC(=O)N(C)[C@@H](CC(F)(F)F)C(=O)N[C@@H]([C@@H](C)CC)C(=O)N(C)CC(=O)N(C)[C@H]3C/C=C\CCN(C3=O)[C@@H](Cc3ccc(C(F)(F)F)cc3)C(=O)N(C)CC(=O)N[C@@H](CCc3ccc(C(F)(F)F)c(Cl)c3)C(=O)N2C1 [PP2833],A (a compound having 10 or more and less than 20 is denoted as A),A (a compound having 10 or more and less than 20 is denoted as A),52
